Experiment: Longest wavelength peak absorption of dyes in three solvents (UV-Visible)
Format: physicochemical
Source text: Reichardt's dye was used without further purification. […] Acetone, methanol, and acetonitrile solvents (HPLC grade) were obtained from Sigma-Aldrich Chemical Co., Inc. A Shimadzu UV-1601 UV-Visible Spectrophotometer (Shimadzu Corporation) was used to measure the longest wavelength peak absorption of the dyes in the range of 400 to 800 nanometers, dissolved in three different solvents, contained in quartz curvettes. The following table contains the results of the testing with the solvents on the left side and dyes across the top.

For `[O-]c1c(-c2ccccc2)cc(-[n+]2c(-c3ccccc3)cc(-c3ccccc3)cc2-c2ccccc2)cc1-c1ccccc1` [Reichardt's dye, 4-(2,4,6-triphenylpyridinium-1-yl)-2,6-diphenylphenolate], the Color in solvent (Acetone) was “(Bluish-green)”, the “Longest wavelength peak absorption” value (Acetone) was 674 nm and the Color in solvent (Acetonitrile) was “(Blue)”. For the same compound, the “Longest wavelength peak absorption” value (Acetonitrile) was 623 nm, the Color in solvent (Methanol) was “(red)” and the “Longest wavelength peak absorption” value (Methanol) was 509 nm.

Reference: patent publication US7300770B2, “Detection of microbe contamination on elastomeric articles” (Kimberly-Clark Worldwide, Inc., priority 2004, dated 2007)
